Assay results from patent US8129380B2, “Phthalazinone derivatives” (AstraZeneca AB, priority 2008, dated 2012).

What follows are compounds tested on HeLa cells (assay: Potentiation Factor (PF50): MMS growth inhibition, SRB assay). Settings: MMS 0-10 μg/ml, PARP inhibitor at 30 nM, ratio IC50 control / IC50 + inhibitor.
Type: cell-based
Experimental: The Potentiation Factor (PF50) for compounds is calculated as a ratio of the IC50 of control cell growth divided by the IC50 of cell growth+PARP inhibitor. Growth inhibition curves for both control and compound treated cells are in the presence of the alkylating agent methyl methanesulfonate (MMS). The test compounds were used at a fixed concentration of 0.2 micromolar. The concentrations of MMS were over a range from 0 to 10 μg/ml.
2,000 HeLa cells were seeded into each well of a flat-bottomed 96-well microtiter plate in a volume of 100 μl and incubated for 6 hours at 37° C. Cells were either replaced with media alone or with media containing PARP inhibitor at a final concentration of 30 nM or 200 nM. […] Cells treated with PARP inhibitor alone were used to assess the growth inhibition by the PARP inhibitor.
Cells were left for a further 16 hours before replacing the media and allowing the cells to grow for a further 72 hours at 37° C. The media was then removed and the cells fixed with 100 μl of ice cold 10% (w/v) trichloroacetic acid. The plates were incubated at 4° C. for 20 minutes and then washed four times with water. Each well of cells was then stained with 100 μl of 0.4% (w/v) SRB in 1% acetic acid for 20 minutes before washing four times with 1% acetic acid. Plates were then dried for 2 hours at room temperature. The dye from the stained cells was solubilized by the addition of 100 μl of 10 mM Tris Base into each well.

SMILES	PF50 (30 nM)
O=C(c1cc(Cc2n[nH]c(=O)c3ccccc23)ccc1F)N1CCC(Oc2ccc(F)cc2)CC1 [Compound 2c]	1.9
O=C(c1cc(Cc2n[nH]c(=O)c3ccccc23)ccc1F)N1CCC(OCC2CC2)CC1 [Compound 2g]	4.3
CC(C)COC1CCN(C(=O)c2cc(Cc3n[nH]c(=O)c4ccccc34)ccc2F)CC1 [Compound 2h]	2.9
O=C(c1cc(Cc2n[nH]c(=O)c3ccccc23)ccc1F)N1CCC(Oc2ccccn2)CC1 [Compound 2i]	16.7
O=C(c1cc(Cc2n[nH]c(=O)c3ccccc23)ccc1F)N1CCC(Oc2ccncc2)CC1 [Compound 2j]	3.0
O=C(c1cccc(Cc2n[nH]c(=O)c3c(F)ccc(F)c23)c1)N1CCC(OCC2CC2)CC1 [Compound 4a]	1.2
O=C(c1cccc(Cc2n[nH]c(=O)c3c(F)ccc(F)c23)c1)N1CCC(Oc2ccccn2)CC1 [Compound 4b]	2.2
CC(C)COC1CCN(C(=O)c2cccc(Cc3n[nH]c(=O)c4c(F)ccc(F)c34)c2)CC1 [Compound 4c]	1.2
O=C(c1cc(Cc2n[nH]c(=O)c3ccccc23)ccn1)N1CCC(Oc2ccc(Cl)cc2)CC1 [Compound 6a]	1.7
O=C(c1cc(Cc2n[nH]c(=O)c3ccccc23)ccn1)N1CCC(Oc2ccc(F)cc2)CC1 [Compound 6b]	1.5
COC1CCN(C(=O)c2cc(Cc3n[nH]c(=O)c4ccccc34)ccn2)CC1 [Compound 6c]	1.2
O=C(c1cc(Cc2n[nH]c(=O)c3ccccc23)ccn1)N1CCC(Oc2ccccc2)CC1 [Compound 6d]	1.4
O=C(c1cc(Cc2n[nH]c(=O)c3ccccc23)ccn1)N1CCC(Oc2ccncc2)CC1 [Compound 6e]	1.5
O=C(c1cc(Cc2n[nH]c(=O)c3ccccc23)ccn1)N1CCC(Oc2ccccn2)CC1 [Compound 6f]	1.8
COCCOC1CCN(C(=O)c2cc(Cc3n[nH]c(=O)c4ccccc34)ccc2F)CC1 [Compound 7, 4-(4-fluoro-3-(4-(2-methoxyethoxy)piperidine-1-carbonyl)benzyl)phthalazin-1(2H)-one]	4.0
COc1cccc(OC2CCN(C(=O)c3cc(Cc4n[nH]c(=O)c5ccccc45)ccc3F)CC2)c1 [Compound 8a, 4-[[4-fluoro-3-[4-(3-methoxyphenoxy)piperidine-1-carbonyl]phenyl]methyl]-2H-phthalazin-1-one]	1.6
COc1ccc(OC2CCN(C(=O)c3cc(Cc4n[nH]c(=O)c5ccccc45)ccc3F)CC2)cc1 [Compound 8b, 4-[[4-fluoro-3-[4-(4-methoxyphenoxy)piperidine-1-carbonyl]phenyl]methyl]-2H-phthalazin-1-one]	23.6
CCCOC1CCN(C(=O)c2cc(Cc3n[nH]c(=O)c4ccccc34)ccc2F)CC1 [Compound 8c, 4-[[4-fluoro-3-(4-propoxypiperidine-1-carbonyl)phenyl]methyl]-2H-phthalazin-1-one]	12.2
COc1ccccc1OC1CCN(C(=O)c2cc(Cc3n[nH]c(=O)c4ccccc34)ccc2F)CC1 [Compound 8d, 4-[[4-fluoro-3-[4-(2-methoxyphenoxy)piperidine-1-carbonyl]phenyl]methyl]-2H-phthalazin-1-one]	1.2
O=C(c1cc(Cc2n[nH]c(=O)c3ccccc23)ccc1F)N1CCC(OCc2ccccc2)CC1 [Compound 8e, 4-[[4-fluoro-3-(4-phenylmethoxypiperidine-1-carbonyl)phenyl]methyl]-2H-phthalazin-1-one]	1.4
N#CCc1ccc(OC2CCN(C(=O)c3cc(Cc4n[nH]c(=O)c5ccccc45)ccc3F)CC2)cc1 [Compound 8f, 2-[4-[1-[2-fluoro-5-[(4-oxo-3H-phthalazin-1-yl)methyl]benzoyl]piperidin-4-yl]oxyphenyl]acetonitrile]	4.1
O=C(c1cc(Cc2n[nH]c(=O)c3ccccc23)ccc1F)N1CCC2(CC1)OCc1ccccc12 [Compound 9, 4-(4-fluoro-3-(3H-spiro[isobenzofuran-1,4′-piperidine]-1′-ylcarbonyl)benzyl)phthalazin-1(2H)-one]	1.3
CC(C)OC1CCN(C(=O)c2cc(Cc3n[nH]c(=O)c4ccccc34)ccc2F)CC1 [Compound 11, 4-(4-fluoro-3-(4-isopropoxypiperidine-1-carbonyl)benzyl)phthalazin-1(2H)-one]	33.6

SMILES	PF50 (30 nM)
CC(C)OC1CCN(C(=O)c2cccc(Cc3n[nH]c(=O)c4ccccc34)c2)CC1 [Compound 12]	2.1
O=C(c1cc(Cc2n[nH]c(=O)c3ccccc23)ccc1F)N1CCC(OC2CCC2)CC1 [Compound 15, 4-(3-(4-cyclobutoxypiperidine-1-carbonyl)-4-fluorobenzyl)phthalazin-1(2H)-one]	4.4
C=CCOC1CCN(C(=O)c2cc(Cc3n[nH]c(=O)c4ccccc34)ccc2F)CC1 [Compound 16]	3.4
O=C(c1cc(Cc2n[nH]c(=O)c3ccccc23)ccc1F)N1CCC(OC(F)F)CC1 [Compound 19, 4-(3-(4-(difluoromethoxy)piperidine-1-carbonyl)-4-fluorobenzyl)phthalazin-1(2H)-one]	2.5
O=C(c1cc(Cc2n[nH]c(=O)c3ccccc23)ccc1F)N1CCC(OCC2CCCO2)CC1 (stereo not drawn) [Compound 20, 4-[[4-fluoro-3-[4-(oxolan-2-ylmethoxy)piperidine-1-carbonyl]phenyl]methyl]-2H-phthalazin-1-one]	2.0
COC1(C)CCN(C(=O)c2cc(Cc3n[nH]c(=O)c4ccccc34)ccc2F)CC1 [Compound 24, 4-[[4-fluoro-3-(4-methoxy-4-methylpiperidine-1-carbonyl)phenyl]methyl]-2H-phthalazin-1-one]	1.5
CC(C)OC1CCN(C(=O)c2cc(Cc3n[nH]c(=O)c4ccccc34)ccn2)CC1 [Compound 25, 4-[[2-(4-propan-2-yloxypiperidine-1-carbonyl)pyridin-4-yl]methyl]-2H-phthalazin-1-one]	2.1
O=C(c1cc(Cc2n[nH]c(=O)c3ccccc23)ccc1F)N1CCC(Oc2ccncn2)CC1 [Compound 26a, 4-(4-fluoro-3-(4-(pyrimidin-4-yloxy)piperidine-1-carbonyl)benzyl)phthalazin-1(2H)-one]	3.7
Cc1ccc(OC2CCN(C(=O)c3cc(Cc4n[nH]c(=O)c5ccccc45)ccc3F)CC2)nn1 [Compound 26b]	1.5
N#Cc1ccc(OC2CCN(C(=O)c3cc(Cc4n[nH]c(=O)c5ccccc45)ccc3F)CC2)nc1 [Compound 26c]	32.4
O=C(c1cc(Cc2n[nH]c(=O)c3ccccc23)ccc1F)N1CCC(Oc2cnccn2)CC1 [Compound 26d]	4.0
O=C(c1cc(Cc2n[nH]c(=O)c3ccccc23)ccc1F)N1CCC(Oc2ncccn2)CC1 [Compound 26e]	2.7
N#Cc1ccnc(OC2CCN(C(=O)c3cc(Cc4n[nH]c(=O)c5ccccc45)ccc3F)CC2)c1 [Compound 26f]	4.4
NC(=O)c1ccnc(OC2CCN(C(=O)c3cc(Cc4n[nH]c(=O)c5ccccc45)ccc3F)CC2)c1 [Compound 26g]	1.6
Cc1nccnc1OC1CCN(C(=O)c2cc(Cc3n[nH]c(=O)c4ccccc34)ccc2F)CC1 [Compound 26h]	12.7
Cc1cnc(OC2CCN(C(=O)c3cc(Cc4n[nH]c(=O)c5ccccc45)ccc3F)CC2)c(C)n1 [Compound 26i]	8.0
Cc1cnc(C)c(OC2CCN(C(=O)c3cc(Cc4n[nH]c(=O)c5ccccc45)ccc3F)CC2)n1 [Compound 26j]	1.2
COc1ccnc(OC2CCN(C(=O)c3cc(Cc4n[nH]c(=O)c5ccccc45)ccc3F)CC2)c1 [Compound 26k]	26.8
N#Cc1nccnc1OC1CCN(C(=O)c2cc(Cc3n[nH]c(=O)c4ccccc34)ccc2F)CC1 [Compound 26l]	1.2
O=C(c1cc(Cc2n[nH]c(=O)c3ccccc23)ccc1F)N1CCC(Oc2ccc(Cl)nc2)CC1 [Compound 26m]	2.4
O=C(c1cc(Cc2n[nH]c(=O)c3ccccc23)ccc1F)N1CCC(OC(CF)CF)CC1 [Compound 29, 4-(3-(4-(1,3-difluoropropan-2-yloxy)piperidine-1-carbonyl)-4-fluorobenzyl)phthalazin-1(2H)-one]	25.9
O=C(c1cc(Cc2n[nH]c(=O)c3ccccc23)ccc1F)N1CCC(OC2CCCC2)CC1 [Compound 36, 4-(3-(4-(cyclopentyloxy)piperidine-1-carbonyl)-4-fluorobenzyl)phthalazin-1(2H)-one]	14.5

Same assay, conditions: MMS 0-10 μg/ml, PARP inhibitor at 200 nM, ratio IC50 control / IC50 + inhibitor

SMILES	PF50 (200 nM)
O=C(c1cc(Cc2n[nH]c(=O)c3ccccc23)ccc1F)N1CCC(O)CC1 [Compound 2a, 4-(4-fluoro-3-(4-hydroxypiperidine-1-carbonyl)benzyl)phthalazin-1(2H)-one]	3
O=C(c1cc(Cc2n[nH]c(=O)c3ccccc23)ccc1F)N1CCC(Oc2ccc(F)cc2)CC1 [Compound 2c]	7
O=C(c1cc(Cc2n[nH]c(=O)c3ccccc23)ccn1)N1CCC(Oc2ccc(Cl)cc2)CC1 [Compound 6a]	4.2
O=C(c1cc(Cc2n[nH]c(=O)c3ccccc23)ccn1)N1CCC(Oc2ccc(F)cc2)CC1 [Compound 6b]	3.5
COC1CCN(C(=O)c2cc(Cc3n[nH]c(=O)c4ccccc34)ccn2)CC1 [Compound 6c]	1.5
O=C(c1cc(Cc2n[nH]c(=O)c3ccccc23)ccn1)N1CCC(Oc2ccccc2)CC1 [Compound 6d]	3.5
O=C(c1cc(Cc2n[nH]c(=O)c3ccccc23)ccn1)N1CCC(Oc2ccncc2)CC1 [Compound 6e]	1.9
O=C(c1cc(Cc2n[nH]c(=O)c3ccccc23)ccn1)N1CCC(Oc2ccccn2)CC1 [Compound 6f]	5.0
O=C(c1cc(Cc2n[nH]c(=O)c3ccccc23)ccc1F)N1CCC(OC2CCCC2)CC1 [Compound 36, 4-(3-(4-(cyclopentyloxy)piperidine-1-carbonyl)-4-fluorobenzyl)phthalazin-1(2H)-one]	24.3
